From patent publication US20250082630A1, “METHODS OF TREATING BRAIN TUMOURS AND NEUROBLASTOMAS” (AstraZeneca AB, priority 2021, published 2025) come the findings set out here.

In one series the test system is DLD1 cells. The experiment in a line: PARP proliferation assay (7 day compound dosing), WT DLD1. It is filed as cell-based. Conditions: Homo sapiens, DLD-1, 168 h, read-out: WT DLD-1 prolif. 7 d IC50. Here is the method: DLD1 and BRCA2 (−/−) DLD1 cells were harvested to a density of 5000 cells/ml and 2.5E4 cells/ml respectively in complete media, 40 μL/well seeded into 384-well plates (Greiner, Kremsmunster, Austria; 781090) using a Multidrop Combi then incubated at 37° C., 5% CO2 overnight. Next day (Day 1) using a Multidrop Combi add sytox green (5ul, 2 uM) and saponin (10 ul, 0.25% stock) to a day 0 plate, seal the plate using a black adhesive lid and incubate for >3 h at it. Cells were imaged using Cell Insight (Thermo Fisher) fitted with a 4x objective. Test compounds are added using an Echo 555 and placed in incubator maintained at 37° C., 5% CO2 and incubated for 7 days. On Day 8 add sytox green (5ul, 2 uM) and then saponin (10 ul, 0.25% stock) to plates, seal the plate using a black adhesive lid and incubate for >3 h at it. Read all cells on the Cell Insight with 4× Objective. The rate of proliferation is determined in Genedata by assessing the total cell number output from the Cell Insight for Day 0 and Day 8 plates.

Series [1] can be described thus: Determination of Kpuu in rat. Format: in vivo, Han Wistar rats. Conditions: Han Wistar, rat, brain and plasma (unbound brain-to-plasma ratio), 2 µmols/kg/h, intravenous infusion. As for the experimental part:
The fraction unbound was determined using the RED Device.
Compounds were prepared as 10 mM solutions in DMSO. […] If less than 9 test compounds were included then the addition volume of blank DMSO was added to make up volume to 40 uL.
Frozen plasma was thawed in a water bath at 37° C. Plasma was then centrifuged for 2 minutes at 4,000 rpm to remove clots and collect supernatant into a fresh tube. The pH of the plasma was checked and only used if within the range of pH 7 to pH 8. 3 μL of the working solution of each cassette was added to 597 μL of blank plasma and vortexed for 5 minutes at 1000 rpm. The final percent volume of organic solvent is 0.5% and the final concentration for test compound was 5 μM. Immediately transfer 50 μL of the spiked plasma suspension to a 96-well plate to act as T=0 control sample. The samples are treated the same as the samples after incubation. The remaining plasma is kept at 37° C. prior to starting the dialysis.
Place inserts open end up into the wells of the base plate. Add 300 μL of spiked plasma sample into the sample chamber, indicated by the red ring. Add 500 μL of phosphate buffer (pH 7.4) to the buffer chamber. Cover the unit with gas permeable lid and incubate for 18 hours at 37° C. at 300 rpm with 5% CO2 on an orbital shaker in the CO2 incubator. At the end of incubation, remove lid and pipette 50 μL of post-dialysis samples from both buffer and plasma chambers into separated 96-well plate for analysis, respectively.
Samples were matrix matched by adding 50 μL of blank rat plasma to the buffer samples and an equal volume of PBS to the collected plasma samples and vortexed to mix. 400 μL of acetonitrile containing an appropriate internal standard (IS) was added to precipitate protein and release compound and mixed by vortexing the plate for 10 minutes followed by centrifugation for 30 minutes at 4,000 rpm. 250 μL of the supernatant was transferred to new 96-well plates and centrifuged again (4,000 rpm, 30 minutes). 100 μL of the supernatant was then transferred to new 96-well plates and mixed with 100 μL of distilled water to each sample by vortex for 5 minutes at 1,000 rpm. Samples were analysed by LC-MS/MS and drug concentrations were determined vs a calibration curve produced from spiked blank plasma with a typical range of 1-7500 nM.
The % unbound was determined as % Unbound=(Conc. buffer chamber/Conc. plasma chamber)×100%. Fraction unbound=% unbound/100.
The principle for the method for the determination of volume unbound in brain slices has previously been published (Development of a High-Throughput Brain Slice Method for Studying Drug Distribution in the Central Nervous System; Fridén et al; Drug Metabolism and Disposition, 2009, 37 (6) 1226-1233). In brief:
Compound stock solutions were prepared in DMSO at the concentration of 10 mM. […] If less than 9 test compounds were included, then blank DMSO was added to make up volume to 40 uL. On the day of the experiment 4 ul was diluted in 40 mL ECF buffer to give a 100 nM solution of each test compounds which was then pre-warmed to 37° C. before the start of the incubation.
To prepare brain slices, rats weighing approximately 300 g were terminally anesthetised with isoflurane by inhalation, the brain carefully removed and immersed in ice-cold oxygenated ECF buffer. The rat brain was transferred to a dish containing ice-cold, 02 supplied ECF buffer and trimmed with razor before gluing to the tray of a microslicer with the brain placed with the back section surface down centrally on the tray. Ice cold ECF buffer was added to harden the glue and wet the brain. The tray was placed in the microslicer and using a suitable cutting speed, 100-400 μm were cut slices until the striatum area appeared. Four to six for each brain, 300 μm thick, coronal slices of striatum areas were cut and placed in ice cold 02 supplied buffer until incubation. Six slices were transferred to the incubation tray containing 40 mL pre warmed (37° C.) cassette mixture. […]

For series [2], the system named is PARylation in U87 isogenic pair. The experiment in a line: PARylation inhibition in U87 isogenic pair. It is filed as cell-based. As to conditions: data not shown.
For series [3], the system named is PARylation in BT245 H3K27M paediatric glioma model. The experiment in a line: PARylation inhibition in paediatric glioma model. Format: cell-based.
The test system of the next series is U87MG xenograft. It is filed as in vivo, female Nude mice. As to conditions: Compound 20 3 mg/kg QD in combination with TMZ 6.25 mg/kg QD on days 1-5 and 29-33, PO. As for the experimental part: U87MG cells (2.5 million in serum-free MEM medium) were implanted subcutaneously (SC) into the dorsal flank of female Nude mice (weight greater than 18 g). Tumours were measured (length x width) two times weekly by bilateral Vernier calliper measurements and tumour volume was calculated using elliptical formula (π/6×width×width×length). Animal bodyweight and tumour condition were monitored throughout the study. Mice were randomised into treatment groups when mean tumour volume reached approximately 0.2 cm^3.
Animals were treated orally (PO) from the day after the randomisation. Control animals were treated with vehicle (water/methane sulfonic acid (MSA) pH3-3.2) once daily for 10 days (QD×10). PARP inhibitor in water/MSA pH3-3.2 was dosed in the monotherapy and combination groups at 3 mg/kg QD×10 or QD×33, respectively. Temozolomide (TMZ) in OraPlus Perrigo was dosed in the monotherapy group at 25 mg/kg QD on days 1-5 and 29-33, and in monotherapy and combination group at 6.25 mg/kg QD on days 1-5 and 29-33.
Tumour growth inhibition from start of treatment was assessed by comparison of the mean change in tumour volume (TV) of the control and treated groups and represented as percent tumour growth inhibition (TGI, when tumour volume (TV) >starting TV) or tumour regression (reg, when TV<starting TV). Statistical significance was evaluated using a one-tailed t test. Statistical significance is indicated as follows: *p:0.05, **p:0.01, ***p:0.001.

As a reminder, the IC50 is the point on the concentration scale where inhibition reaches its midpoint. On to `CNC(=O)c1ccc(N2CCN(Cc3ccc4nc(C)c(=O)[nH]c4c3F)CC2)c(F)n1` [Example 20, 6-fluoro-5-[4-[(5-fluoro-2-methyl-3-oxo-4H-quinoxalin-6-yl)methyl]piperazin-1-yl]-N-methyl-pyridine-2-carboxamide], for which the IC50 with DLD1 cells is over 30000 nM. Moreover, in series [1], the Kp uu at 4 h stood at 0.27. The results for the “IC95 for PARylation inhibition” value in series [2] and in series [3] were 8 nM and 4 nM, respectively. Also, the tumour regression with U87MG xenograft is recorded as 95%. The tumours regressed with U87MG xenograft is 8/8.
